Where a chain is given by its changes, count along the chain named. No end group written: not given here.
Legend:
[1] = molecular target: DQA10101-DQB10501 (Homo sapiens, UniProt P01909+P01920, A157S/A45G/A70V/C70R/D89V/E106S/E118A/E183D/E77G/F83G/G63E/H151Q/H199R/H252R/H253Q/I129T/I235V/I88M/INS77G/K197Q/L107V/L117V/L119Y/L178F/L71W/L74F/L85Q/L91A/L98M/M46L/N214S/P87R/Q116E/Q256R/Q57E/Q76K/R102G/R240Q/R75S/R78G/S102Y/S185I/S41F/S97I/T103A/T109R/T121G/T122I/T172A/T86R/V148I/V68A/V73E/Y34C/Y58G/Y62H); assay: Competitive MHC class II binding assay, DQA10101-DQB10501; conditions: positive binding at cutoff 1000 nM; read-out: HLA-DQA10101-DQB10501
[2] = molecular target: DRB1_0802 (Homo sapiens, UniProt P01903+P01911, A100R/A103L/A169T/F76Y/H45Y/I96F/K41T/L162R/M171V/P40S/Q125H/Q178H/Q39Y/Q99D/R218S/R42G/S66Y/V115G/W38E); assay: Competitive MHC class II binding assay, DRB1_0802
[3] = molecular target: DRB5_0101 (Homo sapiens, UniProt P01903+Q30154); assay: Competitive MHC class II binding assay, DRB5_0101
[4] = molecular target: DRB1_0901 (Homo sapiens, UniProt P01903+P01911, A100R/A103E/D57H/D86V/F55Y/F60I/F76Y/I96F/K127E/L162R/M171V/P40D/Q125H/Q99R/R33Q/R42F/S133A/S66N/T210M/V115G/W38K/Y107V/Y59G/Y89S); assay: Competitive MHC class II binding assay, DRB1_0901;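 note: displacement of a radiolabeled probe peptide from purified HLA class II protein, bound counts read after two to four days incubation, six concentrations spanning 100,000-fold, unlabeled probe as reference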
[5] = molecular target: DPA10201-DPB10101; assay: Competitive MHC class II binding assay, DPA10201-DPB10101; conditions: read-out: HLA-DPA10201-DPB10101; positive binding at cutoff 1000 nM
[6] = molecular target: DRB1_1501 (Homo sapiens, UniProt P01903+P01911); assay: Competitive MHC class II binding assay, DRB1_1501
[7] = molecular target: DRB4_0101 (Homo sapiens, UniProt P01903+P13762, G164S); assay: Competitive MHC class II binding assay, DRB4_0101
[8] = molecular target: DRB1_1302 (Homo sapiens, UniProt P01903+P01911, A100E/A169T/K41T/L162R/M171V/P40S/Q125H/Q178H/Q39Y/Q99D/R42S/S66N/T262R/V115G/W38E/Y61H); assay: Competitive MHC class II binding assay, DRB1_1302;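 note: purified HLA class II protein incubated two to four days with a radiolabeled reference binder and test peptide at six concentrations over a 100,000-fold range, complex-bound radioactivity counted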
[9] = molecular target: DRB3_0202 (Homo sapiens, UniProt P01903+P79483, A212P/D57E/F66Y/L67A/R103Q/R218S/R40L/S89Y/T80R/V86D/Y55F/Y59H); assay: Competitive MHC class II binding assay, DRB3_0202
[10] = molecular target: DRB1_0401 (Homo sapiens, UniProt P01903+P01911, A100K/A169T/F76Y/I96L/K127E/L162R/M171V/N62H/P40V/Q125Y/R42H/S133A/S149N/S66Y/V115G/V209L/W38E); assay: Competitive MHC class II binding assay, DRB1_0401
[11] = molecular target: DRB1_0405 (Homo sapiens, UniProt P01903+P01911, A100R/A169T/D86S/F76Y/I96L/K127E/L162R/M171V/N62H/P40V/Q125Y/R42H/S133A/S149N/S66Y/V115G/V209L/W38E); assay: Competitive MHC class II binding assay, DRB1_0405
[12] = molecular target: DRB1_0701 (Homo sapiens, UniProt P01903+P01911, A100R/A102G/A103Q/D57E/D86V/E43K/F76Y/K127E/L162R/M171V/P40G/Q125H/Q99D/R33Q/R42Y/R54Q/S133A/S66F/T210M/V115G/Y107V/Y59L/Y89S); assay: Competitive MHC class II binding assay, DRB1_0701;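 note: displacement of a radiolabeled reference peptide from purified HLA class II protein, with complex-bound radioactivity counted after 2–4 days of incubation and six concentrations spanning a 100,000-fold range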
[13] = molecular target: T1, DPA10103-DPB10401 (Homo sapiens, UniProt P04440+P20036); assay: Competitive MHC class II binding assay, DPA10103-DPB10401
T1 sequence (P20036 29-260): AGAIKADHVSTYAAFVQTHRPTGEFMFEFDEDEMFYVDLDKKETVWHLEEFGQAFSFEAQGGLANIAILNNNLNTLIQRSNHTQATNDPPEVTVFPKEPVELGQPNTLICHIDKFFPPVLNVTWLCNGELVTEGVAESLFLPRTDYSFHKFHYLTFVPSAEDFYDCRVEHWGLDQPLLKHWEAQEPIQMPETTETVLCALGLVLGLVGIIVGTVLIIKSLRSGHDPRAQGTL
T1 sequence (P04440 30-258): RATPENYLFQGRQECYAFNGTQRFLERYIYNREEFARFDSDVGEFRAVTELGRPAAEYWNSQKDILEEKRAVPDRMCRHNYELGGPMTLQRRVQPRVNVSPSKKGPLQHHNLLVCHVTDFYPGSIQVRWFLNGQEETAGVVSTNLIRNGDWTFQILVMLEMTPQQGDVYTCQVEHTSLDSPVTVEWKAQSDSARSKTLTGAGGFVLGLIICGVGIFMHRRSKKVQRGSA

[14] = molecular target: DRB1_0101 (Homo sapiens, UniProt P01903+P01911, A100R/D57E/F55L/F60I/F76Y/I96L/L162R/M171V/P40L/Q125E/R42F/V115G/Y59C); assay: Competitive MHC class II binding assay, DRB1_0101;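 note: competition against a radiolabeled probe peptide (0.1–1 nM) for purified HLA class II protein over 2–4 days, bound counts read after antibody capture, six competitor levels across 100,000-fold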
[15] = molecular target: DPA10201-DPB11401; assay: Competitive MHC class II binding assay, DPA10201-DPB11401; conditions: read-out: HLA-DPA10201-DPB11401; positive binding at cutoff 1000 nM
[16] = molecular target: DRB1_1201 (Homo sapiens, UniProt P01903+P01911, A100R/A169T/D57E/D86V/F55L/H45Y/K41T/L162R/M171V/P40S/Q125H/Q178H/Q39Y/Q99D/R42G/S66L/T262R/V114A/V67L/W38E/Y59H/Y61H/Y89S); assay: Competitive MHC class II binding assay, DRB1_1201
[17] = molecular target: DRB1_0301 (Homo sapiens, UniProt P01903+P01911, A100K/A102G/A103R/A169T/F55Y/I96L/K41T/L162R/M171V/P40S/Q125H/Q178H/Q39Y/R42S/S66N/T106N/T262R/W38E/Y61H); assay: Competitive MHC class II binding assay, DRB1_0301
[18] = molecular target: T2, DPA10103-DPB10201 (Homo sapiens, UniProt P04440+P20036, A65V/A84D/A85E/K98E); assay: Competitive MHC class II binding assay, DPA10103-DPB10201
T2 sequence (P20036 29-260): T1 sequence (P20036 29-260)
T2 sequence (P04440 30-258 A65V/A84D/A85E/K98E): T1 sequence (P04440 30-258) with A36V, A55D, A56E, K69E

[19] = molecular target: T3, DPA10202-DPB10501 (Homo sapiens, UniProt P04440+P20036, A42M/A65V/A84E/F191V/F64L/G113D/G114E/K142R/L158P/M116V/M62Q/P115A/Q81R/R125K/T114A/T199I/T259P/V234M); assay: Competitive MHC class II binding assay, DPA10202-DPB10501; conditions: positive binding at cutoff 1000 nM; read-out: HLA-DPA10202-DPB10501
T3 sequence (P04440 30-258 A65V/A84E/F64L/G113D/G114E/M116V/P115A/R125K/T199I/V234M): T1 sequence (P04440 30-258) with F35L, A36V, A55E, G84D, G85E, P86A, M87V, R96K, T170I, V205M
T3 sequence (P20036 29-260 A42M/F191V/K142R/L158P/M62Q/Q81R/T114A/T259P): T1 sequence (P20036 29-260) with A14M, M34Q, Q53R, T86A, K114R, L130P, F163V, T231P

Measured: IC50

ESAYLAYRNQSLDLAE [pep-009]
not listed: [15] | [16] | [17] | [18] | [19]
< 1000 nM: all other assays above

QQYDIKYTWNVPKIA [pep-031]
not listed: [5] | [11] | [13] | [14]
< 1000 nM: all other assays above

From patent US20160251403A1, “PEPTIDE COMBINATIONS AND USES THEREOF IN TREATING DUST MITE ALLERGY” (ALK-ABELLO A/S, priority 2013, published 2016)
